Activity calls are given as the source filed them. No cut-off for these calls is given here. Bridge positions count the residues as written; N and C are the ends. Peptide text beside a SMILES is read from it.

In one assay the test system is LX-2. The experiment in a line: Anti-fibrotic activity in human LX2 cells assessed as reduction in […] expression by measuring relative inhibition rate measured after 24 hrs incubation by Western blot analysis relative to control. It counts as functional. More on the design: concentration or dose not given beside the values. A general note: Immunoblotting shows a protein as a band on a membrane.

The test system of assay [1] is Mus musculus. The experiment in a line: In vivo anti-fibrotic activity against methionine and choline-deficient (MCD) diet-induced liver fibrosis C57BL/6J mouse model assessed as decrease in inflammatory infiltration and collagen deposition at 150 to 300 microg/kg once daily for 3 weeks by Sirius Red staining based assay. It is filed as functional, organism-based. Particulars: dose 150-300 µg/kg.

Assay [2] relates to Mus musculus. Put plainly: In vivo anti-fibrotic activity against CCl4-induced liver fibrosis C57BL/6J mouse model assessed as decrease in pro-apoptotic protein CHOP level at 300 microg/kg once daily for 3 weeks by Western blot analysis. It counts as functional, organism-based. Particulars: dose 300.0 µg/kg.
Assay [3] relates to Mus musculus. Put plainly: In vivo anti-fibrotic activity against CCl4-induced liver fibrosis C57BL/6J mouse model assessed as decrease in steatosis and inflammation at 150 to 300 microg/kg once daily for 3 weeks by H and E staining based assay. To be noted: dose 150-300 µg/kg. It counts as functional, organism-based.
For assay [4], the system named is Mus musculus. The experiment in a line: In vivo anti-fibrotic activity against methionine and choline-deficient (MCD) diet-induced liver fibrosis C57BL/6J mouse model assessed as reduction in oxidative stress by measuring increase in catalase at 150 to 300 microg/kg once daily for 3 weeks by enzyme activity assay. It is filed as functional, organism-based. Particulars: dose 150-300 µg/kg.

Assay [5] has as its system Mus musculus. The experiment in a line: Induction of fatty acid beta-oxidation related gene expression in methionine and choline-deficient (MCD) diet-induced liver fibrosis C57BL/6J mouse model assessed as increase in PGC1A mRNA level at 150 to 300 microg/kg once daily for 3 weeks by qPCR analysis. It counts as functional, organism-based. Particulars: dose 150-300 µg/kg.

In assay [6] the test system is Mus musculus. The experiment in a line: Reduction in fatty acid synthesis related gene expression in methionine and choline-deficient (MCD) diet-induced liver C57BL/6J fibrosis mouse model assessed as reduction in FATP1 mRNA level at 150 to 300 microg/kg once daily for 3 weeks by qPCR analysis. It is filed as functional, organism-based. Particulars: dose 150-300 µg/kg. (In general: Real-time PCR tracks product formation cycle by cycle.)

Assay [7] deals with Mus musculus. Put plainly: In vivo anti-fibrotic activity against CCl4-induced liver fibrosis C57BL/6J mouse model assessed as decrease in alpha-SMA at 150 to 300 microg/kg once daily for 3 weeks by IHC staining based assay. To be noted: dose 150-300 µg/kg. It counts as functional, organism-based.
Assay [8] concerns Mus musculus. The experiment in a line: In vivo anti-fibrotic activity against methionine and choline-deficient (MCD) diet-induced liver fibrosis C57BL/6J mouse model assessed as reduction in inflammation by measuring decrease in Ly6G inflammation marker at 150 to 300 microg/kg once daily for 3 weeks by IHC staining based assay. It is filed as functional, organism-based. To be noted: dose 150-300 µg/kg.

The subject of assay [9] is Mus musculus. Put plainly: In vivo anti-fibrotic activity against CCl4-induced liver fibrosis C57BL/6J mouse model assessed as reduction in ROS treated once daily for 3 weeks by RT-qPCR analysis. It counts as functional, organism-based. To be noted: dose 150-300 µg/kg.
Assay [10] concerns Mus musculus. Put plainly: Induction of fatty acid beta-oxidation related gene expression in methionine and choline-deficient (MCD) diet-induced liver fibrosis C57BL/6J mouse model assessed as increase in […] mRNA level at 150 to 300 microg/kg once daily for 3 weeks by qPCR analysis. It counts as functional, organism-based. Particulars: dose 150-300 µg/kg.
In assay [11] the test system is Mus musculus. The experiment in a line: In vivo anti-fibrotic activity against methionine and choline-deficient (MCD) diet-induced liver fibrosis C57BL/6J mouse model assessed as reduction in ROS treated at 150 to 300 microg/kg once daily for 3 weeks by qPCR analysis. It counts as functional, organism-based. To be noted: dose 150-300 µg/kg.
For assay [12], the system named is Mus musculus. Put plainly: In vivo anti-fibrotic activity against CCl4-induced liver fibrosis C57BL/6J mouse model assessed as reduction in oxidative stress by measuring increase in catalase at 150 to 300 microg/kg once daily for 3 weeks by enzyme activity assay. It is filed as functional, organism-based. To be noted: dose 150-300 µg/kg.
The subject of assay [13] is Mus musculus. The experiment in a line: In vivo anti-fibrotic activity against CCl4-induced liver fibrosis C57BL/6J mouse model assessed as decrease in inflammation at 150 to 300 microg/kg once daily for 3 weeks by IHC staining based assay. To be noted: dose 150-300 µg/kg. It is filed as functional, organism-based.

Turning to `CC[C@H](C)[C@@H]1NC(=O)[C@H]([C@@H](C)O)NC(=O)[C@@H]2CCCN2C(=O)[C@H](CO)NC(=O)[C@H](CC(N)=O)NC(=O)[C@H](CCCCN)NC(=O)[C@H](CCCCN)NC(=O)[C@@H](N)CSSC[C@@H](C(=O)O)NC1=O` (H-CKKNSPTIC-OH; disulfide 1-9), in the assay on LX-2, the Activity is 47%. The result in the assay on Mus musculus [1], in the assay on Mus musculus [2], with Mus musculus [3], in the assay on Mus musculus [4], in the assay on Mus musculus [5] and with Mus musculus [6] was Active. Further, the outcome in the assay on Mus musculus [7], in the assay on Mus musculus [8], with Mus musculus [9], with Mus musculus [10], with Mus musculus [11] and in the assay with Mus musculus [12] was Active. The result in the assay on Mus musculus [13] was Active.

Source of the values: ChEMBL document CHEMBL5523746, “Discovery of Novel Peptide Antagonists Targeting GPR55 for Liver Inflammation and Fibrosis” (2024).
